We go through one substance from PMC11295857 (Malaria Journal, 2024).

This test concerns P. falciparum Dd2 strain. In kind it is cell-based, Plasmodium falciparum. To be noted: single dose, 72 h in vitro treatment; Fig. 1B; normalized to non-treated cultures.

Take poly-L-glutamate: the “parasite growth inhibition (in words)” value is on record as “parasite growth inhibition was not observed”.
